Converted amounts (≈) assume the structure as drawn. The source made the active and inactive calls. The rule behind the calls is not given here.
Tests used:
Assay type in all cases: functional
Micrococcus luteus [1] = experiment: Antimicrobial activity against Micrococcus luteus ATCC 9341 at 400 ug after 18 hrs by disk diffusion method
Staphylococcus aureus [2] = experiment: Antimicrobial activity against Staphylococcus aureus ATCC 6538 after 18 hrs by twofold dilution technique; conditions: ATCC 6538, 18 h
Staphylococcus aureus [3] = experiment: Antimicrobial activity against methicillin-resistant Staphylococcus aureus 236/7 by twofold dilution technique
[4] = tested on: Staphylococcus epidermidis; experiment: Antimicrobial activity against Staphylococcus epidermidis ATCC 12228 at 400 ug after 18 hrs by disk diffusion method; conditions: ATCC 12228, 18 h, read-out: DIZ
Staphylococcus aureus [5] = experiment: Antimicrobial activity against Methicillin susceptible Staphylococcus aureus 212/7 by twofold dilution technique
Staphylococcus aureus [6] = experiment: Antimicrobial activity against Staphylococcus aureus ATCC 25923 at 400 ug after 18 hrs by disk diffusion method; conditions: ATCC 25923, 18 h, read-out: DIZ
Staphylococcus aureus [7] = experiment: Antimicrobial activity against Methicillin susceptible Staphylococcus aureus 239/7 by twofold dilution technique
Micrococcus luteus [8] = experiment: Antimicrobial activity against Micrococcus luteus ATCC 10240 by twofold dilution technique
Bacillus subtilis [9] = experiment: Antimicrobial activity against Bacillus subtilis ATCC 6633 after 18 hrs by twofold dilution technique; conditions: ATCC 6633, 18 h
Staphylococcus aureus [10] = experiment: Antimicrobial activity against Methicillin susceptible Staphylococcus aureus 208/7 by twofold dilution technique
Staphylococcus aureus [11] = experiment: Antimicrobial activity against methicillin-resistant Staphylococcus aureus 200/7 by twofold dilution technique
Staphylococcus aureus [12] = experiment: Antimicrobial activity against Methicillin susceptible Staphylococcus aureus 206/7 by twofold dilution technique
Staphylococcus aureus [13] = experiment: Antimicrobial activity against Methicillin susceptible Staphylococcus aureus 207/7 by twofold dilution technique
Staphylococcus aureus [14] = experiment: Antimicrobial activity against Staphylococcus aureus ATCC 6538 at 400 ug after 18 hrs by disk diffusion method; conditions: ATCC 6538, 18 h, read-out: DIZ
Staphylococcus aureus [15] = experiment: Antimicrobial activity against Staphylococcus aureus ATCC 25923 after 18 hrs by twofold dilution technique; conditions: ATCC 25923, 18 h
[16] = tested on: Staphylococcus epidermidis; experiment: Antimicrobial activity against Staphylococcus epidermidis ATCC 12228 by twofold dilution technique
Micrococcus luteus [17] = experiment: Antimicrobial activity against Micrococcus luteus ATCC 10240 at 400 ug after 18 hrs by disk diffusion method; conditions: ATCC 10240, 18 h, read-out: DIZ
Staphylococcus aureus [18] = experiment: Antimicrobial activity against Methicillin susceptible Staphylococcus aureus 243/7 by twofold dilution technique
Staphylococcus aureus [19] = experiment: Antimicrobial activity against methicillin-resistant Staphylococcus aureus 146/6 by twofold dilution technique
Staphylococcus aureus [20] = experiment: Antimicrobial activity against Methicillin susceptible Staphylococcus aureus 238/7 by twofold dilution technique
Staphylococcus aureus [21] = experiment: Antimicrobial activity against methicillin-resistant Staphylococcus aureus 141/6 by twofold dilution technique
Micrococcus luteus [22] = experiment: Antimicrobial activity against Micrococcus luteus ATCC 9341 after 18 hrs by twofold dilution technique; conditions: ATCC 9341, 18 h
Staphylococcus aureus [23] = experiment: Antimicrobial activity against Staphylococcus aureus ATCC 29213 after 18 hrs by twofold dilution technique; conditions: ATCC 29213, 18 h
Staphylococcus aureus [24] = experiment: Antimicrobial activity against Staphylococcus aureus ATCC 29213 at 400 ug after 18 hrs by disk diffusion method; conditions: ATCC 29213, 18 h, read-out: DIZ
Staphylococcus aureus [25] = experiment: Antimicrobial activity against Methicillin susceptible Staphylococcus aureus 213/7 by twofold dilution technique
Bacillus cereus [26] = experiment: Antimicrobial activity against Bacillus cereus ATCC 11778 at 400 ug after 18 hrs by disk diffusion method; conditions: ATCC 11778, 18 h, read-out: DIZ
Staphylococcus aureus [27] = experiment: Antimicrobial activity against methicillin-resistant Staphylococcus aureus 144/6 by twofold dilution technique
Bacillus subtilis [28] = experiment: Antimicrobial activity against Bacillus subtilis ATCC 6633 at 400 ug after 18 hrs by disk diffusion method; conditions: ATCC 6633, 18 h, read-out: DIZ
Enterococcus hirae [29] = experiment: Antimicrobial activity against Enterococcus hirae ATCC 10541 after 18 hrs by twofold dilution technique; conditions: ATCC 10541, 18 h
Staphylococcus aureus [30] = experiment: Antimicrobial activity against Methicillin susceptible Staphylococcus aureus 237/7 by twofold dilution technique
Staphylococcus aureus [31] = experiment: Antimicrobial activity against methicillin-resistant Staphylococcus aureus 136/6 by twofold dilution technique
Staphylococcus aureus [32] = experiment: Antimicrobial activity against methicillin-resistant Staphylococcus aureus 217/7 by twofold dilution technique
Staphylococcus aureus [33] = experiment: Antimicrobial activity against methicillin-resistant Staphylococcus aureus 143/6 by twofold dilution technique
Staphylococcus aureus [34] = experiment: Antimicrobial activity against Staphylococcus aureus NCTC 4163 at 400 ug after 18 hrs by disk diffusion method; conditions: NCTC 4163, 18 h, read-out: DIZ
Staphylococcus aureus [35] = experiment: Antimicrobial activity against methicillin-resistant Staphylococcus aureus 140/6 by twofold dilution technique
Staphylococcus aureus [36] = experiment: Antimicrobial activity against Staphylococcus aureus NCTC 4163 after 18 hrs by twofold dilution technique; conditions: NCTC 4163, 18 h
Staphylococcus aureus [37] = experiment: Antimicrobial activity against Methicillin susceptible Staphylococcus aureus 242/7 by twofold dilution technique
Staphylococcus aureus [38] = experiment: Antimicrobial activity against methicillin-resistant Staphylococcus aureus 218/7 by twofold dilution technique
Bacillus cereus [39] = experiment: Antimicrobial activity against Bacillus cereus ATCC 11778 after 18 hrs by twofold dilution technique; conditions: ATCC 11778, 18 h
Enterococcus hirae [40] = experiment: Antimicrobial activity against Enterococcus hirae ATCC 10541 at 400 ug after 18 hrs by disk diffusion method

Row | SMILES | diameter of the inhibition zone (DIZ) (Micrococcus luteus [1]) | MIC (Staphylococcus aureus [2]) | MIC (Staphylococcus aureus [3]) | zone of inhibition at 400 µg/disc [4] | MIC (Staphylococcus aureus [5]) | zone of inhibition at 400 µg/disc (Staphylococcus aureus [6]) | MIC (Staphylococcus aureus [7]) | MIC (Micrococcus luteus [8]) | MIC (Bacillus subtilis [9]) | MIC (Staphylococcus aureus [10]) | MIC (Staphylococcus aureus [11]) | MIC (Staphylococcus aureus [12]) | MIC (Staphylococcus aureus [13]) | zone of inhibition at 400 µg/disc (Staphylococcus aureus [14]) | MIC (Staphylococcus aureus [15]) | MIC [16] | zone of inhibition at 400 µg/disc (Micrococcus luteus [17]) | MIC (Staphylococcus aureus [18]) | MIC (Staphylococcus aureus [19]) | MIC (Staphylococcus aureus [20]) | further results
1 | Cc1cc2c(C(C)C)c(O)c(O)c(/C=N/N3CCN(CCO)CC3)c2c(O)c1-c1c(C)cc2c(C(C)C)c(O)c(O)c(/C=N/N3CCN(CCO)CC3)c2c1O | inactive | 25 µg/mL (≈ 32.3 µM) | 25 µg/mL (≈ 32.3 µM) | 14 mm | 50 µg/mL (≈ 64.7 µM) | 13 mm | 25 µg/mL (≈ 32.3 µM) | 50 µg/mL (≈ 64.7 µM) | 100 µg/mL (≈ 129 µM) | 50 µg/mL (≈ 64.7 µM) | 50 µg/mL (≈ 64.7 µM) | 25 µg/mL (≈ 32.3 µM) | 50 µg/mL (≈ 64.7 µM) | 12 mm | 50 µg/mL (≈ 64.7 µM) | 200 µg/mL (≈ 259 µM) | 15 mm | 25 µg/mL (≈ 32.3 µM) | 50 µg/mL (≈ 64.7 µM) | 25 µg/mL (≈ 32.3 µM) | MIC (Staphylococcus aureus [21]): 50 µg/mL (≈ 64.7 µM); MIC (Micrococcus luteus [22]): 50 µg/mL (≈ 64.7 µM); MIC (Staphylococcus aureus [23]): 25 µg/mL (≈ 32.3 µM); zone of inhibition at 400 µg/disc (Staphylococcus aureus [24]): 12 mm; MIC (Staphylococcus aureus [25]): 50 µg/mL (≈ 64.7 µM); zone of inhibition at 400 µg/disc (Bacillus cereus [26]): 12 mm; MIC (Staphylococcus aureus [27]): 50 µg/mL (≈ 64.7 µM); zone of inhibition at 400 µg/disc (Bacillus subtilis [28]): 12 mm; MIC (Enterococcus hirae [29]): 50 µg/mL (≈ 64.7 µM); MIC (Staphylococcus aureus [30]): 25 µg/mL (≈ 32.3 µM); MIC (Staphylococcus aureus [31]): 50 µg/mL (≈ 64.7 µM); MIC (Staphylococcus aureus [32]): 50 µg/mL (≈ 64.7 µM); MIC (Staphylococcus aureus [33]): 50 µg/mL (≈ 64.7 µM); zone of inhibition at 400 µg/disc (Staphylococcus aureus [34]): 13 mm; MIC (Staphylococcus aureus [35]): 50 µg/mL (≈ 64.7 µM); MIC (Staphylococcus aureus [36]): 50 µg/mL (≈ 64.7 µM); MIC (Staphylococcus aureus [37]): 12.5 µg/mL (≈ 16.2 µM); MIC (Staphylococcus aureus [38]): 50 µg/mL (≈ 64.7 µM); MIC (Bacillus cereus [39]): 25 µg/mL (≈ 32.3 µM); diameter of the inhibition zone (DIZ) (Enterococcus hirae [40]): inactive
2 | CCCCOCCOCCN/C=C1\C(=O)C(O)=C(C(C)C)c2cc(C)c(-c3c(C)cc4c(c3O)/C(=C/NCCOCCOCCCC)C(=O)C(O)=C4C(C)C)c(O)c21 | inactive | 50 µg/mL (≈ 62.1 µM) | 50 µg/mL (≈ 62.1 µM) | 12 mm | 200 µg/mL (≈ 248 µM) | 14 mm | 100 µg/mL (≈ 124 µM) | 200 µg/mL (≈ 248 µM) | 200 µg/mL (≈ 248 µM) | 100 µg/mL (≈ 124 µM) | 100 µg/mL (≈ 124 µM) | 50 µg/mL (≈ 62.1 µM) | 100 µg/mL (≈ 124 µM) | 14 mm | 100 µg/mL (≈ 124 µM) | > 400 µg/mL | 12 mm | 100 µg/mL (≈ 124 µM) | 100 µg/mL (≈ 124 µM) | 100 µg/mL (≈ 124 µM) | MIC (Staphylococcus aureus [21]): 200 µg/mL (≈ 248 µM); MIC (Micrococcus luteus [22]): 100 µg/mL (≈ 124 µM); MIC (Staphylococcus aureus [23]): 50 µg/mL (≈ 62.1 µM); zone of inhibition at 400 µg/disc (Staphylococcus aureus [24]): 13 mm; MIC (Staphylococcus aureus [25]): 100 µg/mL (≈ 124 µM); zone of inhibition at 400 µg/disc (Bacillus cereus [26]): 12 mm; MIC (Staphylococcus aureus [27]): 200 µg/mL (≈ 248 µM); zone of inhibition at 400 µg/disc (Bacillus subtilis [28]): 12 mm; MIC (Enterococcus hirae [29]): 100 µg/mL (≈ 124 µM); MIC (Staphylococcus aureus [30]): 100 µg/mL (≈ 124 µM); MIC (Staphylococcus aureus [31]): 50 µg/mL (≈ 62.1 µM); MIC (Staphylococcus aureus [32]): 200 µg/mL (≈ 248 µM); MIC (Staphylococcus aureus [33]): 100 µg/mL (≈ 124 µM); zone of inhibition at 400 µg/disc (Staphylococcus aureus [34]): 14 mm; MIC (Staphylococcus aureus [35]): 100 µg/mL (≈ 124 µM); MIC (Staphylococcus aureus [36]): 100 µg/mL (≈ 124 µM); MIC (Staphylococcus aureus [37]): 50 µg/mL (≈ 62.1 µM); MIC (Staphylococcus aureus [38]): 100 µg/mL (≈ 124 µM); MIC (Bacillus cereus [39]): 100 µg/mL (≈ 124 µM); zone of inhibition at 400 µg/disc (Enterococcus hirae [40]; ATCC 10541, 18 h, read-out: DIZ): 12 mm
